Seven molecules from patent US20110086759A1, “CHEMICAL COMPOUNDS” (SYNGENTA CROP PROTECTION, INC., priority 2007, published 2011) can be followed below.

Assay type in all cases: in vivo
For test [1], the system named is Setaria faberi (SETFA). As to the kind of experiment: Post-emergence biological efficacy, glasshouse pot test. Particulars: 312 h. Summed up:
(§1)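 Pot-grown weeds were sprayed 8 days after sowing with test compound in acetone/water (50:50) with 0.5% Tween 20 at 1000 or 250 g/ha. Glasshouse at 24/16° C day/night, 14 h light, 65% humidity. Damage scored 0-100 (100 = total damage) after 13 days.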

Test [2] has as its system Ipomea hederaceae (IPOHE). The test is described as above. The following applies: Ipomoea hederacea, 312 h. An outline of the steps:
as §1

Test [3] concerns Amaranthus retoflexus (AMARE). The description is as above. The following applies: Amaranthus retroflexus, 312 h. Summed up: as §1
The subject of test [4] is Alopecurus myosuroides (ALOMY). The test is described as above. Particulars: 312 h. Summed up:
as §1

Test [5] relates to Solanum nigrum (SOLNI). The description is as above. Particulars: 312 h. An outline of the steps:
as §1

For test [6], the system named is Echinochloa crus-galli (ECHCG). Described as above. Particulars: 312 h. Summed up: as §1
The test system of test [7] is Setaria faberi (SETFA). Kind of test: Pre-emergence biological efficacy, glasshouse pot test. Particulars: 312 h. An outline of the steps:
(§2)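 Damage rated 0–100 (100 = total kill) 13 days post-spray. Pots of standard soil were sown and sprayed after one day with test compound at 1000 or 250 g/ha in acetone/water (50:50) plus 0.5% Tween 20.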

Test [8] relates to Ipomea hederaceae (IPOHE). The description is as above. Particulars: Ipomoea hederacea, 312 h. An outline of the steps:
as §2

For test [9], the system named is Amaranthus retoflexus (AMARE). The description is as above. Particulars: Amaranthus retroflexus, 312 h. Summed up: as §2
For test [10], the system named is Alopecurus myosuroides (ALOMY). Described as above. The following applies: 312 h. Summed up: as §2
The subject of test [11] is Solanum nigrum (SOLNI). The test is described as above. Particulars: 312 h. An outline of the steps: as §2
The test system of test [12] is Echinochloa crus-galli (ECHCG). The test is described as above. The following applies: 312 h. An outline of the steps:
as §2

The mark [13] stands for this setting: post-emergence, 1,000 g/ha, evaluated after 13 days (100=total damage; 0=no damage), read-out: Percentage damage caused to weed species, SETFA.
The mark [14] stands for this setting: post-emergence, 1,000 g/ha, evaluated after 13 days (100=total damage; 0=no damage), read-out: Percentage damage caused to weed species, IPOHE.
Setting [15] is: post-emergence, 1,000 g/ha, evaluated after 13 days (100=total damage; 0=no damage), read-out: Percentage damage caused to weed species, AMARE.
Where [16] appears, read: post-emergence, 1,000 g/ha, evaluated after 13 days (100=total damage; 0=no damage), read-out: Percentage damage caused to weed species, ALOMY.
The mark [17] stands for this setting: post-emergence, 1,000 g/ha, evaluated after 13 days (100=total damage; 0=no damage), read-out: Percentage damage caused to weed species, SOLNI.
Setting [18] is: post-emergence, 1,000 g/ha, evaluated after 13 days (100=total damage; 0=no damage), read-out: Percentage damage caused to weed species, ECHCG.
Setting [19] is: pre-emergence, 1,000 g/ha, evaluated after 13 days (100=total damage; 0=no damage), read-out: Percentage damage SETFA.
Setting [20] is: pre-emergence, 1,000 g/ha, evaluated after 13 days (100=total damage; 0=no damage), read-out: Percentage damage IPOHE.
The mark [21] stands for this setting: pre-emergence, 1,000 g/ha, evaluated after 13 days (100=total damage; 0=no damage), read-out: Percentage damage AMARE.
Setting [22] is: pre-emergence, 1,000 g/ha, evaluated after 13 days (100=total damage; 0=no damage), read-out: Percentage damage ALOMY.
Setting [23] is: pre-emergence, 1,000 g/ha, evaluated after 13 days (100=total damage; 0=no damage), read-out: Percentage damage SOLNI.
[24] abbreviates: pre-emergence, 1,000 g/ha, evaluated after 13 days (100=total damage; 0=no damage), read-out: Percentage damage ECHCG.
[25] abbreviates: Rate 1,000 g/ha, post-emergence spray, evaluated after 13 days (100=total damage to plant; 0=no damage to plant), read-out: Percentage damage caused to weed species, post-emergence, SETFA.
Where [26] appears, read: Rate 1,000 g/ha, post-emergence spray, evaluated after 13 days (100=total damage to plant; 0=no damage to plant), read-out: Percentage damage caused to weed species, post-emergence, IPOHE.
Setting [27] is: Rate 1,000 g/ha, post-emergence spray, evaluated after 13 days (100=total damage to plant; 0=no damage to plant), read-out: Percentage damage caused to weed species, post-emergence, AMARE.
The mark [28] stands for this setting: Rate 1,000 g/ha, post-emergence spray, evaluated after 13 days (100=total damage to plant; 0=no damage to plant), read-out: Percentage damage caused to weed species, post-emergence, ALOMY.
Where [29] appears, read: Rate 1,000 g/ha, post-emergence spray, evaluated after 13 days (100=total damage to plant; 0=no damage to plant), read-out: Percentage damage caused to weed species, post-emergence, SOLNI.
Setting [30] is: Rate 1,000 g/ha, post-emergence spray, evaluated after 13 days (100=total damage to plant; 0=no damage to plant), read-out: Percentage damage caused to weed species, post-emergence, ECHCG.
[31] abbreviates: pre-emergence, rate 1,000 g/ha, evaluated after 13 days (100=total damage to plant; 0=no damage), read-out: Percentage damage caused to weed species, SETFA.
Where [32] appears, read: pre-emergence, rate 1,000 g/ha, evaluated after 13 days (100=total damage to plant; 0=no damage), read-out: Percentage damage caused to weed species, IPOHE.
Setting [33] is: pre-emergence, rate 1,000 g/ha, evaluated after 13 days (100=total damage to plant; 0=no damage), read-out: Percentage damage caused to weed species, AMARE.
The mark [34] stands for this setting: pre-emergence, rate 1,000 g/ha, evaluated after 13 days (100=total damage to plant; 0=no damage), read-out: Percentage damage caused to weed species, ALOMY.
[35] abbreviates: pre-emergence, rate 1,000 g/ha, evaluated after 13 days (100=total damage to plant; 0=no damage), read-out: Percentage damage caused to weed species, SOLNI.
[36] abbreviates: pre-emergence, rate 1,000 g/ha, evaluated after 13 days (100=total damage to plant; 0=no damage), read-out: Percentage damage caused to weed species, ECHCG.

Take `COC(=O)c1nc(C2CC2)nc(NCc2ccc(S(N)(=O)=O)cc2)c1Cl` [Compound 4-93, 4-(4-Aminosulphonyl-phenyl)methylamino-5-chloro-2-cyclopropyl-6-methoxycarbonyl-pyrimidine]: the pest or weed control at 1000 g/ha with Setaria faberi (SETFA) [1] (setting [13]) was 0%; in test [2] (setting [14]), 70%; in [3] (setting [15]) it was 30%; in test [4] (setting [16]) it was 0%; in the test with Solanum nigrum (SOLNI) [5] (setting [17]), 50%; in [6] (setting [18]), 0%. Further, the pest or weed control at 1000 g/ha was 0% in the test on Setaria faberi (SETFA) [7] (setting [19]); 40% in [8] (setting [20]); 30% in test [9] (setting [21]); 0% in test [10] (setting [22]); 0% with Solanum nigrum (SOLNI) [11] (setting [23]); 0% in test [12] (setting [24]).

As to `C=CCN(Cc1cccs1)c1nc(C2CC2)nc(C(=O)OC)c1Cl` [Compound 151-140, 5-Chloro-2-cyclopropyl-6-methoxycarbonyl-4-(N-prop-2-en-1-yl-N-thiophen-2-ylmethyl-amino)-pyrimidine], the pest or weed control at 1000 g/ha in the test with Setaria faberi (SETFA) [1] (setting [25]) came to 50%; in test [2] (setting [26]), 70%; in test [3] (setting [27]), 60%; in [4] (setting [28]) it was 10%; in the test with Solanum nigrum (SOLNI) [5] (setting [29]), 50%; in test [6] (setting [30]), 10%. For the same molecule, the pest or weed control at 1000 g/ha in the test with Setaria faberi (SETFA) [7] (setting [31]) came out at 10%; in [8] (setting [32]), 20%; in test [9] (setting [33]), 100%; in [10] (setting [34]) it was 0%; in the test on Solanum nigrum (SOLNI) [11] (setting [35]) it was 70%; in test [12] (setting [36]), 0%.

With `COC(=O)c1nc(C2CC2)nc(NC2(/C=C\c3ccccc3)CC2)c1Cl` [4-19 (Z), 5-Chloro-2-cyclopropyl-6-methoxycarbonyl-[(Z)-1-(2-phenylethenyl)-cyclopropylamino]-pyrimidine], the pest or weed control at 1000 g/ha in the test with Setaria faberi (SETFA) [1] (setting [13]) turned out to be 60%; in [2] (setting [14]) it was 100%; in test [3] (setting [15]), 100%; in test [4] (setting [16]), 10%; in the test on Solanum nigrum (SOLNI) [5] (setting [17]), 90%; in test [6] (setting [18]), 30%. Also, the pest or weed control at 1000 g/ha stood at 0% with Setaria faberi (SETFA) [7] (setting [19]); 90% in test [8] (setting [20]); 90% in [9] (setting [21]); 20% in test [10] (setting [22]); 40% with Solanum nigrum (SOLNI) [11] (setting [23]); 20% in test [12] (setting [24]).

With `COC(=O)c1nc(C2CC2)nc(NC(C)Cc2c[nH]c3ccccc23)c1Cl` (stereo not drawn) [Compound 4-231, 5-Chloro-2-cyclopropyl-4-[2-(indol-3-yl)-1-methyl-ethylamino]-6-methoxy-carbonylpyrimidine], the pest or weed control at 1000 g/ha amounted to 30% in the test with Setaria faberi (SETFA) [1] (setting [13]); 60% in test [2] (setting [14]); 90% in test [3] (setting [15]); 10% in test [4] (setting [16]); 70% in the test on Solanum nigrum (SOLNI) [5] (setting [17]); 10% in test [6] (setting [18]). In addition, the pest or weed control at 1000 g/ha was determined as 0% in the test on Setaria faberi (SETFA) [7] (setting [19]); 70% in test [8] (setting [20]); 30% in test [9] (setting [21]); 0% in test [10] (setting [22]); 10% in the test on Solanum nigrum (SOLNI) [11] (setting [23]); 0% in test [12] (setting [24]).

With `COC(=O)c1nc(C2CC2)nc(N(C)Cc2c(Cl)cccc2Cl)c1Cl` [Compound 5-104, 5-Chloro-2-cyclopropyl-4-[N-(2,6-dichlorophenyl-methyl)-N-methyl-amino]-6-methoxy-carbonylpyrimidine], the pest or weed control at 1000 g/ha in the test with Setaria faberi (SETFA) [1] (setting [25]) amounted to 20%; in test [2] (setting [26]), 70%; in test [3] (setting [27]), 60%; in [4] (setting [28]), 0%; in the test on Solanum nigrum (SOLNI) [5] (setting [29]), 60%; in [6] (setting [30]), 0%. The pest or weed control at 1000 g/ha stood at 0% with Setaria faberi (SETFA) [7] (setting [31]); 40% in [8] (setting [32]); 30% in test [9] (setting [33]); 0% in test [10] (setting [34]); 10% with Solanum nigrum (SOLNI) [11] (setting [35]); 0% in test [12] (setting [36]).

Take `CCCC(F)(CNc1nc(C2CC2)nc(C(=O)OC)c1Cl)c1ccc(Cl)cc1Cl` (stereo not drawn) [Compound 4-244, 5-Chloro-2-cyclopropyl-4-[2-(2,4-dichloro-phenyl)-2-fluoro-pentylamino]-6-methoxycarbonyl-pyrimidine]: the pest or weed control at 1000 g/ha in the test on Setaria faberi (SETFA) [1] (setting [13]) turned out to be 0%; in test [2] (setting [14]), 50%; in test [3] (setting [15]) it was 20%; in test [4] (setting [16]), 0%; in the test on Solanum nigrum (SOLNI) [5] (setting [17]), 20%; in [6] (setting [18]), 0%. The pest or weed control at 1000 g/ha in the test with Setaria faberi (SETFA) [7] (setting [19]) came out at 0%; in test [8] (setting [20]) it was 0%; in [9] (setting [21]), 30%; in test [10] (setting [22]), 0%; in the test on Solanum nigrum (SOLNI) [11] (setting [23]), 0%; in test [12] (setting [24]) it was 0%.

As for `COC(=O)c1nc(C2CC2)nc(N(CCO)Cc2ccc(Cl)nc2)c1Cl` [Compound 157-157, 5-Chloro-4-[N-(6-chloropyrid-3-ylmethyl)-N-2-hydroxyethyl-amino]-2-cyclopropyl-6-methoxycarbonyl-pyrimidine], the pest or weed control at 1000 g/ha came out at 0% in the test on Setaria faberi (SETFA) [1] (setting [25]); 50% in test [2] (setting [26]); 50% in test [3] (setting [27]); 0% in [4] (setting [28]); 30% with Solanum nigrum (SOLNI) [5] (setting [29]); 0% in [6] (setting [30]). The pest or weed control at 1000 g/ha was 30% in the test with Setaria faberi (SETFA) [7] (setting [31]); 40% in test [8] (setting [32]); 100% in [9] (setting [33]); 10% in [10] (setting [34]); 100% in the test with Solanum nigrum (SOLNI) [11] (setting [35]); 20% in test [12] (setting [36]).
